Assay results reported in US8741359B2, “Method for testing a substance which is potentially active in the field of lipolysis and its mainly cosmetic use” (BASF Beauty Care Solutions France S.A.S., priority 2001, dated 2014).

Columns and labels:
lipoprotein lipase [1] = target: T1, lipoprotein lipase (Bos taurus, UniProt P11151); assay: Inhibition of lipoprotein lipase, acellular in vitro model, NEFA determination with NEFA-C kit (colorimetry 550 nm); type: biochemical, bovine; details: for Inhibition (%) Pure product diluted to a 1/100th / Inhibition (%) Pure product diluted to a 1/10,000th / Inhibition (%) Pure product: reference inhibitors; for Inhibition (%) Pure product: pure product at initial concentration (protamine sulphate 0.4%, protamine 2.4%, sodium pyrophosphate 6%)
T1 construct: The LPL used in the study model retained does in fact originate from bovine milk; from tissue; host or cells: bovine milk
T1 sequence (P11151 29-478): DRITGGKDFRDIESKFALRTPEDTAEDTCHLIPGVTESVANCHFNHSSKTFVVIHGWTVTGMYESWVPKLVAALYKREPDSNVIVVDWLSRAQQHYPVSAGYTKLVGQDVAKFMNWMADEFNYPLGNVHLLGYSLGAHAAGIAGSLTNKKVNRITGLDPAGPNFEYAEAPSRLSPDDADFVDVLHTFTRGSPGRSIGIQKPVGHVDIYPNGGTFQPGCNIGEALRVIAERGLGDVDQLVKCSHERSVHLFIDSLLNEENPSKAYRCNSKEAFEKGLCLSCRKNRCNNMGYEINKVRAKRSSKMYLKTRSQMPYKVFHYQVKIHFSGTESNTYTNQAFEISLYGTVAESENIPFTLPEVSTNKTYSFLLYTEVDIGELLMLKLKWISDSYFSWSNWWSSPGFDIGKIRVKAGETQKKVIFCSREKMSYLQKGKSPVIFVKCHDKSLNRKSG
Method: The study of the inhibition of the lipoprotein lipase is carried out in an acellular in vitro model which is desired to be a most ? intelligent ? reflection possible of the situation encountered in vivo.
Upon completion of this incubation, a determination of the non-esterified fatty acids (NEFA) is effected upon the reaction medium by an enzymatic technique which is possible to be followed by colorimetry at 550 nm (NEFA-C kit).
A control corresponding to the LPL activity in the absence of inhibitor is effected. […] The results are expressed in percentage inhibition with respect to the control.

lipoprotein lipase [2] = target: T1, lipoprotein lipase; assay: Inhibition of lipoprotein lipase, released oleic acid determined by gas phase chromatography (GPC); type: biochemical, bovine; details: for Inhibition Pure product diluted to a 1/100th: diluted 1/100th; for Inhibition Pure product diluted to a 1/10,000th: diluted 1/10,000th; for Inhibition Pure product: pure product at initial concentration (sodium pyrophosphate 6%, protamine sulphate 0.4%)
Method: LPL is an enzyme which has a significant affinity for its reaction product. The fatty acids released will in fact aggregate around the enzyme which will as it were be sequestered by the fatty acids and will therefore be no longer accessible to the substrate. […] II—Inhibition of the Lipoprotein Lipase:
The enzyme is incubated for a determined period of time in the presence of its inhibitor while the triolein is incubated in the presence of apoCII so as to mimic the situation encountered in vivo.
The triolein/ApoCII mixture is then incubated in the presence of the medium constituted by the enzyme±inhibitor.
For this, an oleic acid determination technique which enables the oleic acid at the end of the enzymatic reaction to be quantified, was developed.
The oleic acid is extracted from the reaction medium of the enzymatic determination with ethanol, and then injected onto a commercial column from DBJW scientific: reference DB FFAP, 15 m in length, 0.32 mm internal diameter, 0.25 μm thickness in splitless mode. The temperatures of the injector and of the detector are 280° C. The programming in temperature starts at 50° C. for 1 minute and then rises by 40° C./minute up to 200° C. and then by 15° C. par minute up to 250° C. for 3 minutes.

Molecule	Inhibition (%) Pure product diluted to a 1/100th (lipoprotein lipase [1]; diluted 1/100th)	Inhibition (%) Pure product diluted to a 1/10,000th (lipoprotein lipase [1]; diluted 1/10,000th)	Inhibition (%) Pure product (lipoprotein lipase [1])	Inhibition Pure product diluted to a 1/100th (lipoprotein lipase [2])	Inhibition Pure product diluted to a 1/10,000th (lipoprotein lipase [2])	Inhibition Pure product (lipoprotein lipase [2])	Inhibition Pure product diluted to a 1/100th (lipoprotein lipase [1]; denaturing products, diluted 1/100th)	Inhibition Pure product diluted to a 1/10,000th (lipoprotein lipase [1]; denaturing products, diluted 1/10,000th)	Inhibition Pure product (lipoprotein lipase [1]; denaturing products, pure product)
Protamine sulphate	2.6% ± 14.4	11.8% ± 14.7	10.1% ± 7.9	5.0% ± 9.6	27.7% ± 2.9	17.9% ± 17.5	–	–	–
O=C(OC[C@H]1O[C@@H](OC(=O)c2cc(O)c(O)c(OC(=O)c3cc(O)c(O)c(O)c3)c2)[C@H](OC(=O)c2cc(O)c(O)c(OC(=O)c3cc(O)c(O)c(O)c3)c2)[C@@H](OC(=O)c2cc(O)c(O)c(OC(=O)c3cc(O)c(O)c(O)c3)c2)[C@@H]1OC(=O)c1cc(O)c(O)c(OC(=O)c2cc(O)c(O)c(O)c2)c1)c1cc(O)c(O)c(OC(=O)c2cc(O)c(O)c(O)c2)c1 [Tannic acid]	–	–	–	44.8% ± 10.6	0% ± 3.8	100% ± 1.8	11.4% ± 10.39	0% ± 9.8	98.3% ± 12.4
O=P([O-])([O-])OP(=O)([O-])[O-].[Na+].[Na+].[Na+].[Na+] [Sodium pyrophosphate]	13% ± 12.5	0.4% ± 8.3	15% ± 12.6	30.4% ± 4.0	47.4% ± 10.4	35.1% ± 11.1	–	–	–
Protamine	9.6% ± 5	8.5% ± 8.7	11.2% ± 6.6	–	–	–	–	–	–
